Measured values reported in patent publication EP4624466A1, “DEGRADER FOR DECOMPOSING CMET PROTEIN, AND PHARMACEUTICAL COMPOSITION COMPRISING SAME” (Innocure Therapeutics, Inc., priority 2022, dated 2024).

Experiments:
c-MET [1] = target: T1, c-MET (Homo sapiens, UniProt P08581, DEL963-1009); assay: c-MET protein degradation (Simple Western), Hs746T; type: cell-based; settings: c-MET exon 14 skipping mutant gastric cancer cell line Hs746T, treated 24 hours; Table 2
T1 construct: assess the resolution of the compound of the present invention for c-MET expressed in cells; endogenous in cells; host or cells: Hs746T (human gastric cancer)
T1 sequence (P08581 with tags, fused parts or gaps DEL963-1009): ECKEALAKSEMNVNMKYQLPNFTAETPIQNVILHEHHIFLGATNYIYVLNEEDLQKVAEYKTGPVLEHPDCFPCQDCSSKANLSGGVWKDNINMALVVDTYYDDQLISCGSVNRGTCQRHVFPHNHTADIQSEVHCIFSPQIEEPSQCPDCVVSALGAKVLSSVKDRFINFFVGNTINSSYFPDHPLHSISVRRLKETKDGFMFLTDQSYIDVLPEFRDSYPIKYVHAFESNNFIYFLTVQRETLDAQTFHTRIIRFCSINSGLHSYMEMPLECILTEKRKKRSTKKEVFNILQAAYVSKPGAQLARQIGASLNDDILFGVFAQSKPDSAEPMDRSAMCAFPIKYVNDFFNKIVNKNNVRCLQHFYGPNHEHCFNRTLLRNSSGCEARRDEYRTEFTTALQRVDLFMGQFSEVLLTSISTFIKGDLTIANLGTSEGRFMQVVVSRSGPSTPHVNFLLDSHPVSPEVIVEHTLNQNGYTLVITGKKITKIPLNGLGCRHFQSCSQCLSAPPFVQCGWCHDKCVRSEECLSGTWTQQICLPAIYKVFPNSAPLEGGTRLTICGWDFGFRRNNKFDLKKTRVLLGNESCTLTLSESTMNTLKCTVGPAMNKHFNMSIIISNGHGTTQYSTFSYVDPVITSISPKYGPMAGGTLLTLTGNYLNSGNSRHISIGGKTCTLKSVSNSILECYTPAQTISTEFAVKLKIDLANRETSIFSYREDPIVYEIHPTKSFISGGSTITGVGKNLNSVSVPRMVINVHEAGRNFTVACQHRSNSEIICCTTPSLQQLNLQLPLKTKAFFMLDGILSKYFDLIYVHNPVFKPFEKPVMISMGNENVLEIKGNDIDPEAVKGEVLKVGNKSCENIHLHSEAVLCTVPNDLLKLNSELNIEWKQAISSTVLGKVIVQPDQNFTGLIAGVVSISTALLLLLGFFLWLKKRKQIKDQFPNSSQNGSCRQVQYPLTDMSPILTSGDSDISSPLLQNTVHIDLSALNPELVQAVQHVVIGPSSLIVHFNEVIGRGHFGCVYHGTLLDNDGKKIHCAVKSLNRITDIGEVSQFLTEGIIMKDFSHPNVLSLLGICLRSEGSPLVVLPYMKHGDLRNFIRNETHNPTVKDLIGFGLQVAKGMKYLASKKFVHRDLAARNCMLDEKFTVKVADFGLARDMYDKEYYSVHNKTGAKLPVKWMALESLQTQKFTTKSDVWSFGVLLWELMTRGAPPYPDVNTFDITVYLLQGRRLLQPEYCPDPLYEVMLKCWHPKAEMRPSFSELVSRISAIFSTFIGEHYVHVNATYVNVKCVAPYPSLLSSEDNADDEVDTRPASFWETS
T1 sequence (P08581 25-307 partner limits assumed): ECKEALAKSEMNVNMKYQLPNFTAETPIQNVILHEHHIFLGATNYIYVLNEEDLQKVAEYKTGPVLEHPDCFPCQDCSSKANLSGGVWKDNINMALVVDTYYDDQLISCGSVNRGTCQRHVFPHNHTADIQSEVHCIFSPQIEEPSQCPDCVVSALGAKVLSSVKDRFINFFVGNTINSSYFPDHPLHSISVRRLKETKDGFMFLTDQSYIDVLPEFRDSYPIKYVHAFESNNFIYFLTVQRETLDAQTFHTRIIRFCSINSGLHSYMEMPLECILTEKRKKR
Description: (§1) In order to assess the resolution of the compound of the present invention for c-MET expressed in cells, cells were dispensed in a 12-well plate at a concentration of 2 × 10^5 cells/well, and then gastric cancer cell lines were treated with samples for 24 hours and lung cancer cell lines were treated for 48 hours. Cell lysates were collected using a scraper on ice, centrifuged at 4°C15,000 rpm for 30 min to obtain a protein-containing supernatant. Protein expression was then measured using the Simple Western Automated Western Blot System Abby instrument using 3 µg of protein for each sample. SDS and heat-induced denaturation proteins were separated by molecular weight, attached to capillary, reacted with anti-c-MET or anti-GAPDH antibodies, which are primary antibodies, and then reacted with HRP-conjugated secondary antibodies, and analyzed the protein expression signal with compass software. Protein expression was normalized based on the expression value of GAPDH, and protein development in each sample was measured as a percentage (%) based on 100% of samples treated with 0.1% DMSO carriers, and DC50 (concentration of a compound where 50% protein inhibition is achieved) was calculated from the change in protein expression amount due to compound treatment.

c-MET [2] = target: T2, c-MET (Homo sapiens, UniProt P08581); assay: c-MET protein degradation (Simple Western), MKN-45; type: cell-based; parameters: assess the resolution of the compound of the present invention for c-MET expressed in cells; endogenous in cells; host or cells: MKN45 (human gastric cancer); settings: c-MET overexpressing gastric cancer cell line MKN-45, treated 24 hours; Table 2
T2 sequence (P08581 25-1390): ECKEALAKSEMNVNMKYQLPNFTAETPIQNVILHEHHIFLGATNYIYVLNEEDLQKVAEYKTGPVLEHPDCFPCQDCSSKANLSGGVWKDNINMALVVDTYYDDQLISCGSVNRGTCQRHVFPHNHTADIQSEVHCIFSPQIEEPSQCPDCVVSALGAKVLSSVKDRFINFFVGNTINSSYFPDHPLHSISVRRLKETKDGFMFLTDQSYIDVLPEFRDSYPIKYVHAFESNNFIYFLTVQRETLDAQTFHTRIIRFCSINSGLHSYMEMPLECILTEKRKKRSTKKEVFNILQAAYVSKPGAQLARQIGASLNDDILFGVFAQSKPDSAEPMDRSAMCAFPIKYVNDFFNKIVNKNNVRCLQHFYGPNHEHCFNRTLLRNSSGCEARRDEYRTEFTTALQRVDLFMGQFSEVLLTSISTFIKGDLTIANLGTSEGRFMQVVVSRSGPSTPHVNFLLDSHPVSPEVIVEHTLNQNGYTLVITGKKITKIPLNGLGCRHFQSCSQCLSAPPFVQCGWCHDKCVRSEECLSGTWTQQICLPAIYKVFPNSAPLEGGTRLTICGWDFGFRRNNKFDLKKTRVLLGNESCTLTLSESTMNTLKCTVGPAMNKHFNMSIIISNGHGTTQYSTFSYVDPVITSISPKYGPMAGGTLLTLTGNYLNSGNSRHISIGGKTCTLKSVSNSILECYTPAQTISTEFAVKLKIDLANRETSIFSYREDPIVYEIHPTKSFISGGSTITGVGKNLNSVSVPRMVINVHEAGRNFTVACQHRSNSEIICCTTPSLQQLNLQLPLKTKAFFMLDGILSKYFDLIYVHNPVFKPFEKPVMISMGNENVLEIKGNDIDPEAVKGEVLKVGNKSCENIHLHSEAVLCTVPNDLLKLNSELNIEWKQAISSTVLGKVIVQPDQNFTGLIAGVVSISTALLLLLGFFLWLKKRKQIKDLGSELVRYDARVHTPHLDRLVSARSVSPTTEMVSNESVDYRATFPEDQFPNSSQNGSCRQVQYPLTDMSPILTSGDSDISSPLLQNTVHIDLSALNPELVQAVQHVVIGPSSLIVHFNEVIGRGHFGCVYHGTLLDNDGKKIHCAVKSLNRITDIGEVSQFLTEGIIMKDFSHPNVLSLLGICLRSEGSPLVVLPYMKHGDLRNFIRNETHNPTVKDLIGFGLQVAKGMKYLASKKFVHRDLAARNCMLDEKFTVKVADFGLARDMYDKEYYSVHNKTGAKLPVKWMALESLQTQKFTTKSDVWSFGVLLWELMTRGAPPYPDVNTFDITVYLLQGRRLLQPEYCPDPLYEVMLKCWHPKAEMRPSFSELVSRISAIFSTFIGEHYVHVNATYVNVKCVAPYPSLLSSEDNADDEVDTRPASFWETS
In short: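 c-MET level, GAPDH-normalized and relative to 0.1% DMSO-treated cells, measured by automated capillary Western (3 µg protein) after compound exposure of 48 h for lung or 24 h for gastric cancer lines; DC50 = concentration giving 50% reduction.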

SNU-638 = assay: Cell viability / antiproliferative assay (WST-8), SNU-638; type: cell-based, human; settings: Homo sapiens, SNU-638, 72 h, read-out: SNU-638 IC50
Description: (§2) c-MET overexpressing human gastric cancer cell lines [MKN45] and [SNU638] were cultured in RPMI medium with 10% fetal bovine serum, penicillin (100U/ml), and streptomycin (100mg/ml), and c-MET exon 14 skipping mutant human gastric cancer cell lines [Hs746T] were cultured in DMEM media. The c-MET overexpressing human lung cancer cell line EBC-1 was cultured in MEM media with the addition of 10% fetal bovine serum, penicillin (100U/ml), and streptomycin (100mg/ml). […] The compound synthesized in accordance with the present invention was prepared with a raw material solution of 10 mM dissolved in DMSO (dimethyl sulfoxide), and was sequentially diluted and processed.
(§3) In order to observe the inhibitory activity on cell growth, cells were dispensed in a 96-well plate at a concentration of 5,000 cells/well, and then treated with the compound prepared at various concentrations for 72 hours. The viability of the cells was calculated using GraphicPad Prism 8.0 software by adding 10 ml per well of WST-8 (water soluble tetrazolium salt) sample, which reacts with dehydrogenase present in the electron transport system of mitochondria to produce formazon, incubated for 2 hours, and measured absorbance at 450 nm.

Hs746T = assay: Cell viability / antiproliferative assay (WST-8), Hs746T; type: cell-based; settings: Homo sapiens, Hs746T cells, 72 hours, Table 2
Description: as §2, §3

MKN-45 = assay: Cell viability / antiproliferative assay (WST-8), MKN-45; settings: Homo sapiens, MKN-45, 72 h, read-out: MKN-45 IC50;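 note: MKN-45 is a human gastric cancer line overexpressing c-MET, growth inhibition read as WST-8 formazan absorbance at 450 nm after 2 h dye incubation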
Description: as §2, §3

c-MET [3] = target: T2, c-MET; assay: c-MET protein degradation (Simple Western), EBC-1; type: cell-based; parameters: assess the resolution of the compound of the present invention for c-MET expressed in cells; endogenous in cells; host or cells: EBC-1 (human lung cancer); settings: c-MET overexpressing lung cancer cell line EBC-1, treated 48 hours; Table 2
Description: as §1

EBC-1 = assay: Cell viability / antiproliferative assay (WST-8), EBC-1; type: cell-based, human; settings: Homo sapiens, EBC-1, 72 h, read-out: EBC-1 IC50
Description: as §2, §3

c-MET [4] = target: T2, c-MET; assay: c-MET protein degradation (Simple Western), SNU-638; type: cell-based; parameters: assess the resolution of the compound of the present invention for c-MET expressed in cells; endogenous in cells; host or cells: SNU638 (human gastric cancer); settings: c-MET overexpressing gastric cancer cell line SNU-638, treated 24 hours; Table 2
Description: as §1

SMILES	DC50 (c-MET [1]) [nM]	DC50 (c-MET [2]) [nM]	IC50 (SNU-638) [nM]	IC50 (Hs746T) [nM]	IC50 (MKN-45) [nM]	DC50 (c-MET [3]) [nM]	IC50 (EBC-1) [nM]	DC50 (c-MET [4]) [nM]
Cc1nn(C2CCC(=O)NC2=O)c(=O)c2ccc(N3CCN(CCN4CCC(COc5cnc(-c6cccc(Cn7nc(-c8cccc(C#N)c8)ccc7=O)c6)nc5)CC4)CC3)cc12 (stereo not shown) [ICT-0001277, 3-(1-{[3-(5-{[1-(2-{4-[2-(2,6-dioxopiperidin-3-yl)-4-methyl-1-oxo-1,2-dihydrophthalazine-6-yl]piperazine-1-yl}ethyl)piperidine-4-il]methoxy}pyrimidine-2-yl)phenyl]methyl}6-oxo-1,6-dihydropyridazine-3-yl)benzonitrile]	< 100	< 100	< 100	< 100	< 100	< 100	< 100	< 100
Cc1nn(C2CCC(=O)NC2=O)c(=O)c2ccc(N3CCN(c4ccc(NC(=O)CN5CCC(COc6cnc(-c7cccc(Cn8nc(-c9cccc(C#N)c9)ccc8=O)c7)nc6)CC5)cc4)CC3)cc12 (stereo not shown) [ICT-0001207]	< 100	< 100	< 100	100 to 1000	< 100	< 100	< 100	< 100
N#Cc1cccc(-c2ccc(=O)n(Cc3cccc(-c4ncc(N5CCN(CC6CCN(c7ccc(NC8CCC(=O)NC8=O)cc7F)CC6)CC5)cn4)c3)n2)c1 (stereo not shown) [ICT-0001402]	< 100	–	< 100	< 100	–	< 100	< 100	< 100
